Results from ChEMBL document CHEMBL1152560, “Substituted 2-arylbenzothiazoles as kinase inhibitors: hit-to-lead optimization” (Bioorg Med Chem, 2009).

Experiments:
[1] = target: Tyrosine-protein kinase Fer (Homo sapiens) (UniProt P16591); experiment: Residual activity of FER at 1 uM by microplate scintillation counting
[2] = target: Receptor-interacting serine/threonine-protein kinase 2 (Homo sapiens) (UniProt O43353); experiment: Residual activity of RIPK2 at 1 uM by microplate scintillation counting
[3] = target: Tyrosine-protein kinase ABL2 (Homo sapiens) (UniProt P42684); experiment: Residual activity of ABL2 at 1 uM by microplate scintillation counting
[4] = target: T1, Ephrin type-A receptor 3 (Homo sapiens) (UniProt P29320); experiment: Residual activity of EPHA3 at 0.1 uM by microplate scintillation counting
T1 sequence (whole entry): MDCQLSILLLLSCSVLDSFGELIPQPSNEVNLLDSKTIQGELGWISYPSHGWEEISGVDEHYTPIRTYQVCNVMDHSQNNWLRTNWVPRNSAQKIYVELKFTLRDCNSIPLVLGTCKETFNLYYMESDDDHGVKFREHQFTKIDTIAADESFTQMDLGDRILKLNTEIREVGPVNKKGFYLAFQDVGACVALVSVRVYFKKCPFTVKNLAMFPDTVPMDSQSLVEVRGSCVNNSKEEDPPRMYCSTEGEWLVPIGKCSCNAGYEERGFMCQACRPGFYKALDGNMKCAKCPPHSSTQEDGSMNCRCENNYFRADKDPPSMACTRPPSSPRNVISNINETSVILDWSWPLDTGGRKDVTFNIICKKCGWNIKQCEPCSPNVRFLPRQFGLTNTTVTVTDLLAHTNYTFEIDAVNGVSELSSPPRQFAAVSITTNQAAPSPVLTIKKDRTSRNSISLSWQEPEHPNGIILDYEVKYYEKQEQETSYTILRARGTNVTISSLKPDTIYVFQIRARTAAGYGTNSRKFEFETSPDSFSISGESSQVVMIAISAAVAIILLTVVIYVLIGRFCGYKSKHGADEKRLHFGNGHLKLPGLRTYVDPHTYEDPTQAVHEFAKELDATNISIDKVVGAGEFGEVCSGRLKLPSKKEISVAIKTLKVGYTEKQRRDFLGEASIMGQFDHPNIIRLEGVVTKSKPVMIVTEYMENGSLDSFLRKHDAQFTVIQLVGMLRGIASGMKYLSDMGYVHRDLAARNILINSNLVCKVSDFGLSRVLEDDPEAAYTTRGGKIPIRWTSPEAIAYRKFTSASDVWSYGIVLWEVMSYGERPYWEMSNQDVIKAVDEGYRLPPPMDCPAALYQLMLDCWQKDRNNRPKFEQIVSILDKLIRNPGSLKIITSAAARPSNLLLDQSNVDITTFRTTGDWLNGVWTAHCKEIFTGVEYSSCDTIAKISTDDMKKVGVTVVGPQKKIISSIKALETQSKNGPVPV

[5] = target: Macrophage-stimulating protein receptor (Homo sapiens) (UniProt Q04912); experiment: Residual activity of RON at 10 uM by microplate scintillation counting
[6] = target: T2, Serine/threonine-protein kinase TAO2 (Homo sapiens) (UniProt Q9UL54); experiment: Residual activity of TAOK2 at 10 uM by microplate scintillation counting
T2 sequence (whole entry): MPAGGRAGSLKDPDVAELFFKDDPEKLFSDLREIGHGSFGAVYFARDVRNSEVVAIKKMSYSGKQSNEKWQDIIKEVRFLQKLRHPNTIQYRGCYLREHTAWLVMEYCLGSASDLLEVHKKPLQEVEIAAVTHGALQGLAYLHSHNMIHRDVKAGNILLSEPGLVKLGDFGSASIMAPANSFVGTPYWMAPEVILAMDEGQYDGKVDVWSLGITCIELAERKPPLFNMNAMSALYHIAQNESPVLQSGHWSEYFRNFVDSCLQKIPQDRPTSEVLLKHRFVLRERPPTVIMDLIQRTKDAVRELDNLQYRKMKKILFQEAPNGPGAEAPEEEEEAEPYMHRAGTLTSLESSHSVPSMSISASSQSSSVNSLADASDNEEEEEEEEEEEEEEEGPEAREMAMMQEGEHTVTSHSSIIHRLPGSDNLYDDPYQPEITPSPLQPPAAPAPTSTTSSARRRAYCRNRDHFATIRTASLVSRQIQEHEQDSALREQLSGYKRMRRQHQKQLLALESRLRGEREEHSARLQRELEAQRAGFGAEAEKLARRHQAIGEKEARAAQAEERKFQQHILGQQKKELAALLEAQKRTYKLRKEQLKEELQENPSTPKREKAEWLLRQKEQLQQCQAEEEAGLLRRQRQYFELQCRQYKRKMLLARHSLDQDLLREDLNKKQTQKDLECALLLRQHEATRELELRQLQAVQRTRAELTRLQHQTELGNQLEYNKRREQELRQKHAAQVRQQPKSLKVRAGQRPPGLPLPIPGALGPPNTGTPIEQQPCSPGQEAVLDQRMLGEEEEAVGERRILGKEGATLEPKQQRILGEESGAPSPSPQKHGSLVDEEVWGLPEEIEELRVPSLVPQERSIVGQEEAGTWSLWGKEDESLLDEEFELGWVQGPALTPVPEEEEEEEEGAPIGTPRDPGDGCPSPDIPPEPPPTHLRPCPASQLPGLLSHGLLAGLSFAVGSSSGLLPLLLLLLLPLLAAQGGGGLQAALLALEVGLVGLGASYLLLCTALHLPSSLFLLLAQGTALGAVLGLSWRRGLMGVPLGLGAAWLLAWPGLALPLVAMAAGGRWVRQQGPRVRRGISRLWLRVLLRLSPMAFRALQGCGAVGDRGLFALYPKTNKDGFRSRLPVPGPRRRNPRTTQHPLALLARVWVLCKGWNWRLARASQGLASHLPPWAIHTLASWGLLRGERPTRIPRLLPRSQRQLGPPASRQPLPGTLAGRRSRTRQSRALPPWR

Chain of Macrophage-stimulating protein receptor (Homo sapiens) (Q04912 25-304 limits assumed): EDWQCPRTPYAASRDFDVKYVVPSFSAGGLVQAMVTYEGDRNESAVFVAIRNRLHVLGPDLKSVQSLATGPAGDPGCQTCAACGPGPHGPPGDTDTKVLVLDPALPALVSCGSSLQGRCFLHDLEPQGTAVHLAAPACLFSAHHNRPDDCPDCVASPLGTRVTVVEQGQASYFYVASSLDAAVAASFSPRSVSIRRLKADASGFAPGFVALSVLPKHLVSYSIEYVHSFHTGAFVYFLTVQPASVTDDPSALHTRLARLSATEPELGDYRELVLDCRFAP
Chain of Macrophage-stimulating protein receptor (Homo sapiens) (Q04912 310-1400 limits assumed): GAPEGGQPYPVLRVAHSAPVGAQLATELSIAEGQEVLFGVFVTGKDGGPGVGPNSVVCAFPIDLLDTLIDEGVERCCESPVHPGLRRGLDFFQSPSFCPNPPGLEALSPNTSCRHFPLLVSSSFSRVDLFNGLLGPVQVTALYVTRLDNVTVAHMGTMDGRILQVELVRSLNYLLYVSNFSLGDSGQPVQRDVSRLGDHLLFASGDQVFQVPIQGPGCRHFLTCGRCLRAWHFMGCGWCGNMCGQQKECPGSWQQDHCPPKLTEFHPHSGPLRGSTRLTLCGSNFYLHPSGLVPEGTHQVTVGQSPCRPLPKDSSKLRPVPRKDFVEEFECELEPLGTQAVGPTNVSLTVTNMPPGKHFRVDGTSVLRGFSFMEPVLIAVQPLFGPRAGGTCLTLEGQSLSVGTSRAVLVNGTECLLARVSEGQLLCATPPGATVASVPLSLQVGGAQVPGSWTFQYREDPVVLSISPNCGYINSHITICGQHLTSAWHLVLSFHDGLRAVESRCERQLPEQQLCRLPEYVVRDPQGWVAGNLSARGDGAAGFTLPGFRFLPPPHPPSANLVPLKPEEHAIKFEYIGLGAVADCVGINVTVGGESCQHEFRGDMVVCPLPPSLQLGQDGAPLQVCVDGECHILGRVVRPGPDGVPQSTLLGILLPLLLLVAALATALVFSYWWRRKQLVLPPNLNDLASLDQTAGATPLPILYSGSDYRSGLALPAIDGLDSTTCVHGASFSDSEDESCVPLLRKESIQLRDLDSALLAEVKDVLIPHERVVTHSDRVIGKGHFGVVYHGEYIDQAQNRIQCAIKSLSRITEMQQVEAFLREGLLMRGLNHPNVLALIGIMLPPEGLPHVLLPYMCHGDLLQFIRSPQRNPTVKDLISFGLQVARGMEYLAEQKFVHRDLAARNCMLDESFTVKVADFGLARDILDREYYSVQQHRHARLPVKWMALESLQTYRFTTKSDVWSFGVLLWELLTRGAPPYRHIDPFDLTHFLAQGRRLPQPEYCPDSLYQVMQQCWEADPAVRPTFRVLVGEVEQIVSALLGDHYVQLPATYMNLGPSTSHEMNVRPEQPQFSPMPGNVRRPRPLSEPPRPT
Chain of Tyrosine-protein kinase Fer (Homo sapiens) (P16591 whole entry, looked up): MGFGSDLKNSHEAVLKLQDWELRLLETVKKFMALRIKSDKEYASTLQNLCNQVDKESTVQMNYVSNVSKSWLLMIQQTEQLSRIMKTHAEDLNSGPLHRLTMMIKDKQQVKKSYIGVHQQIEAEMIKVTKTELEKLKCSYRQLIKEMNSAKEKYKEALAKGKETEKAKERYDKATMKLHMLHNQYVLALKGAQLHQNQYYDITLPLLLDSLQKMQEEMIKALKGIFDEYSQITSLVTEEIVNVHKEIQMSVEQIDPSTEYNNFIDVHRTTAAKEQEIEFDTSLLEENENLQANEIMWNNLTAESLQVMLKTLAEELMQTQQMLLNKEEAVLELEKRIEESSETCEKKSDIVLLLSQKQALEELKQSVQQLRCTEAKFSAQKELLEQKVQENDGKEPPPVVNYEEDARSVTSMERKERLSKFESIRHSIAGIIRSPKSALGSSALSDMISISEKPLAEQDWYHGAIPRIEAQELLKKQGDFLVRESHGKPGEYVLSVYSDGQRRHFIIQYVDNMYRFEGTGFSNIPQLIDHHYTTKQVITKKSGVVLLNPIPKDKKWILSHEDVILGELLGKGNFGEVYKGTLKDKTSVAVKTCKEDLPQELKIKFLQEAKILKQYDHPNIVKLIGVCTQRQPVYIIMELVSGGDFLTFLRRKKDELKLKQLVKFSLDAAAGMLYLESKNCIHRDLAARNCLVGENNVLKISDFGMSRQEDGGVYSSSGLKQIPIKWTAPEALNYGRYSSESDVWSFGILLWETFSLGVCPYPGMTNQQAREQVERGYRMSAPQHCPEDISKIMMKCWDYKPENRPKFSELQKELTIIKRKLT
Chain of Tyrosine-protein kinase ABL2 (Homo sapiens) (P42684 whole entry): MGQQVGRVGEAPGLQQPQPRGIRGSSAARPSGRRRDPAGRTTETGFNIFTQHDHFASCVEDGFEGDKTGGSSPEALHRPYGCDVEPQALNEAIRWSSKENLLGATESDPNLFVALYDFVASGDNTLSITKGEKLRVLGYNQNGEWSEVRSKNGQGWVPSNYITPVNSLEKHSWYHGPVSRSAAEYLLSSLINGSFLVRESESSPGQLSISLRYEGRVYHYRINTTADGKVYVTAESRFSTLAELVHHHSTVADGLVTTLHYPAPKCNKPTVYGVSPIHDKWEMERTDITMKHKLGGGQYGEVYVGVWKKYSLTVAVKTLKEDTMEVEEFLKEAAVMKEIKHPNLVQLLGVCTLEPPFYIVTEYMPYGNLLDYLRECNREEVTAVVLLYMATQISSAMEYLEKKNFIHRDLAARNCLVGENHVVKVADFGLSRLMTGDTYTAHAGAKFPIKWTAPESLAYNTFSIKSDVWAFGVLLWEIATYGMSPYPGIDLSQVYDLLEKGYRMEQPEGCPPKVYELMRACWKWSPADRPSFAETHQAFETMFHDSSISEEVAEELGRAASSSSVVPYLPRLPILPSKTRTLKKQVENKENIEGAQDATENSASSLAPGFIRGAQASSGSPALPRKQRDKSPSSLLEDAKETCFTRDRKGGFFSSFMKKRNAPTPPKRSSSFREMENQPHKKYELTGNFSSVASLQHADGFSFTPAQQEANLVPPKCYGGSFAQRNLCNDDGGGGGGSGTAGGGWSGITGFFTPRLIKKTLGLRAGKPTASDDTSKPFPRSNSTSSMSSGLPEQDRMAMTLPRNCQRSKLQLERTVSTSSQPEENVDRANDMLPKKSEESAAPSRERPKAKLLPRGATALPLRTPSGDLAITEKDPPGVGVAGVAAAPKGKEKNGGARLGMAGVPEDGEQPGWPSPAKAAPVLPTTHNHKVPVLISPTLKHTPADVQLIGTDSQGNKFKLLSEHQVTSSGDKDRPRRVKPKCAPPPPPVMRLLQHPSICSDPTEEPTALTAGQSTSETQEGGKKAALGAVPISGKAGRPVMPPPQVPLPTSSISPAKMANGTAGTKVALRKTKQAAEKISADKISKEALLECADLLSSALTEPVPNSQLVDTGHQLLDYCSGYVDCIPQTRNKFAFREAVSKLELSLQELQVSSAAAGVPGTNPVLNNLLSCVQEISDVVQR
Chain of Receptor-interacting serine/threonine-protein kinase 2 (Homo sapiens) (O43353 whole entry): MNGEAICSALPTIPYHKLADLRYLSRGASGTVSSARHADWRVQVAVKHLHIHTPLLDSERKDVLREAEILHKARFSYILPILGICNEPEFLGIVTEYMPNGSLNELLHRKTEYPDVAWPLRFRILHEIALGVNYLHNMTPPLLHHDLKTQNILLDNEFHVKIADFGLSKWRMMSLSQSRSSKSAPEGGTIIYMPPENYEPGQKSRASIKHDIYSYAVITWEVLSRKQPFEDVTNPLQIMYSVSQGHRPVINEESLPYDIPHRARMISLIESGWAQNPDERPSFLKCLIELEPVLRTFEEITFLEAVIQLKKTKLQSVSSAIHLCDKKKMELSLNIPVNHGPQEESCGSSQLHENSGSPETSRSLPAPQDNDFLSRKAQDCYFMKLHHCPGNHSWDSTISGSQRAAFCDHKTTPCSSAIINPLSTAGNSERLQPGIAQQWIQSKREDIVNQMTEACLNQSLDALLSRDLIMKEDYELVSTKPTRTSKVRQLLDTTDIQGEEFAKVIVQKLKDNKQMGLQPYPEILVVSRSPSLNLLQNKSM

residual activity [1] | residual activity [2] | residual activity [3] | residual activity [4] | residual activity [5] | residual activity [6] | SMILES
103% | 29% | 98% | 104% | 53% | 122% | COc1cc2c(Oc3ccc(-c4nc5ccccc5s4)cc3)ncnc2cc1OCCCN1CCCC1
107% | 25% | 99% | 92% | 76% | 141% | COc1cc2c(Oc3ccc(-c4nc5ccccc5s4)cc3)ncnc2cc1OCCCN1CCN(C)CC1
96% | 29% | 87% | 106% | 55% | 129% | COc1cc2c(Oc3ccc(-c4nc5ccccc5s4)cc3F)ncnc2cc1OCCCN1CCN(C)CC1
